Assay results from ChEMBL document CHEMBL4229523, “Monoterpene's multiple free radical scavenging capacity as compared with the radioprotective agent cysteamine and amifostine” (Bioorg Med Chem Lett, 2018).

Assays:
Type in all cases: functional
[1] = Antioxidant activity assessed as trolox equivalent of alkoxyl radical scavenging activity by DMPO spin trap-based ESR spectrometric method
[2] = Antioxidant activity assessed as trolox equivalent of superoxide radical scavenging activity by CYPMPO spin trap-based ESR spectrometric method
[3] = Antioxidant activity assessed as trolox equivalent of tert-butyl peroxyl radical scavenging activity by CYPMPO spin trap-based ESR spectrometric method
[4] = Antioxidant activity assessed as trolox equivalent of hydroxyl radical scavenging activity by DMPO spin trap-based ESR spectrometric method
[5] = Antioxidant activity assessed as trolox equivalent of methyl radical scavenging activity by DMPO spin trap-based ESR spectrometric method
[6] = Antioxidant activity assessed as trolox equivalent of singlet oxygen scavenging activity by TMPD spin trap-based ESR spectrometric method
[7] = Antioxidant activity assessed as rate of methyl radical scavenging activity by DMPO spin trap-based ESR spectrometric method

Row | Structure (SMILES) | Activity [1] [equiv] | Activity [2] [equiv] | Activity [3] [equiv] | Activity [4] [equiv] | Activity [5] [equiv] | Activity [6] [equiv] | K [7] [×10⁶ /M/s]
1 | CC1CCC(C(C)C)C(O)C1 (configuration not stated) | 0 | 0.39 | 0.31 | 0.49 | 0 | 0.22 | –
2 | Cc1ccc(C(C)C)c(O)c1 | 0.013 | 0.24 | 0.22 | 0.3 | 0 | 0.16 | –
3 | NCCS | 0.045 | 0.13 | 0.08 | 1.5 | 0.18 | 1.1 | 2.5
4 | NCCCNCCSP(=O)(O)O | 0.054 | 0.3 | 0.058 | 0.76 | 0.2 | 0.17 | 2.8
5 | C=CC(C)(O)CCC=C(C)C (configuration not stated) | 0.045 | 0.27 | 0 | 0.38 | 0 | 0.046 | –
